Test results taken from patent US7572823B2, “Heteroaryl carboxamide compounds” (Hoffmann-La Roche Inc., priority 2006, dated 2009).

Biological target: T1, cholesteryl ester transfer protein (CETP) (Homo sapiens, UniProt P11597)
T1 construct: the source of CETP was human lipoprotein-deprived serum (LPDS); from tissue; host or cells: human lipoprotein-deprived serum (LPDS)
T1 sequence (P11597 18-493): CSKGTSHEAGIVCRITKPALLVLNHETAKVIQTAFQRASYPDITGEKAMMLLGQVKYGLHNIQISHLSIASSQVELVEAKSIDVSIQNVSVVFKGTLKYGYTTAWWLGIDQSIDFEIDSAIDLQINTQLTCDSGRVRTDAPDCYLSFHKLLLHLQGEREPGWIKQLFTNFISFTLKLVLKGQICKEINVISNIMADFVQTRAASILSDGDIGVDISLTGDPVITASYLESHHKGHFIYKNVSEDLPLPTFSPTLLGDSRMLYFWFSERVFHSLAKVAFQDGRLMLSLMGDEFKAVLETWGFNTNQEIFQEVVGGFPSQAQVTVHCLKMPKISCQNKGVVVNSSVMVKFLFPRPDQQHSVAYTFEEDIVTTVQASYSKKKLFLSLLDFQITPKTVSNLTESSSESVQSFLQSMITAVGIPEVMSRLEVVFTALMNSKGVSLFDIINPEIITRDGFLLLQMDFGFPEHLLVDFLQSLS
Assay: CETP inhibition SPA assay in the presence of plasma (CETP source: human lipoprotein-deprived serum)
Assay type: biochemical
Settings: CETP source human lipoprotein-deprived serum (LPDS), radiolabeled cholesteryl ester transfer from HDL donor to biotin-labeled LDL acceptor
Method: Activity of CETP inhibitors was determined using a buffer assay system. Partially purified CETP transferred radiolabeled cholesteryl ester from HDL donor particles to biotin-labeled LDL acceptor particles. The reaction was stopped by addition of streptavidin-coupled scintillation proximity assay (SPA) beads. These beads captured the biotinylated acceptor particles and transferred radioactivity was measured. The assay system was purchased and performed according to manufacturer's recommendations (Amersham Biosciences). Inhibitory activity of compounds was determined as percentage of positive control activity containing CETP together with donor and acceptor particles. Serial dilution of compounds was performed in order to determine the IC50 values. Activity of the compounds was subsequently measured in the presence of plasma using the same assay as described above except that the source of CETP was human lipoprotein-deprived serum (LPDS). Inhibitory activity of compounds was determined as percentage of positive control activity containing all the assay components except compound. Serial dilution of compounds was performed in order to determine the IC50 values.

Row | SMILES | IC50 [nM]
1 | C[Si](C)(C)c1ccc(CN(CCc2cccc(OC(F)(F)F)c2)C(=O)c2c(F)c(Cl)cc3cc[nH]c23)cc1 [Example 1, 5-Chloro-6-fluoro-1H-indole-7-carboxylic acid [2-(3-trifluoromethoxy-phenyl)-ethyl]-(4-trimethylsilanyl-benzyl)-amide] | 21
2 | C[Si](C)(C)c1ccc(CN(CCc2cccc(C(F)(F)F)c2)C(=O)c2c(F)c(Cl)cc3cc[nH]c23)cc1 [Example 3, 5-Chloro-6-fluoro-1H-indole-7-carboxylic acid [2-(3-trifluoromethyl-phenyl)-ethyl]-(4-trimethylsilanyl-benzyl)-amide] | 16
3 | CC(C)[Si](C)(C)c1ccc(CN(CCc2cccc(C(F)(F)F)c2)C(=O)c2c(F)c(Cl)cc3cc[nH]c23)cc1 [Example 6, 5-Chloro-6-fluoro-1H-indole-7-carboxylic Acid [4-(isopropyl-dimethyl-silanyl)-benzyl]-[2-(3-trifluoromethyl-phenyl)-ethyl]-amide] | 44
